Where two headings read alike, the source gives them in different places.
System: human MDA-MB-231 breast cancer cells
Experiment: Antiproliferative activity, tetrazolium reduction assay (Lazo method), 72 h
Type: cell-based
Settings: for IC50: MDA-MB-231, 72 h continuous treatment, read-out: concentration causing 50% growth inhibition
From the text: The ability of the compounds of the present invention to inhibit proliferation can be assessed by methods known to those of ordinary skill in the art. For example, proliferating cells can be contacted with a compound of the invention, and cell numbers determined. A reduction in cell number in treated versus untreated cells provides a measure of the ability of the present compounds to inhibit proliferation. In a preferred embodiment the cells to be treated are cancer cells, for example breast cancer cells such as the CDC25B+ breast cancer cells MDA-MB-231, which are available from the American Type Culture Collection (Accession No. HTB-26). The antiproliferative activity of the present compounds can also be measured by the assay described by Lazo et al. (1995) J. Biol. Chem. 270: 5506, the disclosure of which is incorporated herein by reference. The microtiter-based calorimetric assay is based upon the reduction of 3-[4,5-dimethylthiazol-2-yl]-2,5-diphenyl tetrazolium bromide by living cells, and permits evaluation of the cytostatic or cytotoxic actions of large numbers of compounds quickly in mouse embryonic fibroblasts and human CDC25B+ breast cancer cells. Briefly, exponentially growing CDC25B+ MDA-MB-231 cells are treated continuously with from 0 to 100 μM of a compound of the invention, and cell proliferation is determined calorimetrically after 72 hours by assessing the ability of the cells to reduce 3-[4,5-dimethylthiazol-2-yl]-2,5-diphenyl tetrazolium bromide.
Human MDA-MB-231 breast carcinoma cells were obtained from the American Type Culture Collection at passage 28 and were maintained for no longer than 20 passages. The cells were grown in RPMI-1640 supplemented with 1% penicillin (100 μg/mL) and streptomycin (100 μg/mL), 1% L-glutamate,and 10% fetal bovine serum in a humidified incubator at 37° C. under 5% CO2 in air. Cells were routinely found free of mycoplasma. To remove cells from the monolayer for passage or flow cytometry, cells were washed two times with phosphate buffer and briefly (<3 min) treated with 0.05% trypsin/2 mM EDTA at room temperature. After the addition of at least two volumes of growth medium containing 10W fetal bovine serum, the cells were centrifuged at 1,000×g for 5 min. Compounds were made into stock solutions using DMSO, and stored at -20° C. All compounds and controls were added to obtain a final concentration of 0.1-0.2% (v/v) of the final solution for experiments.
The antiproliferative activity of the compounds was determined by the method of Lazo et al. (1995) J. Biol. Chem. 270:5506. Briefly, cells (6.5×10^3 cells/cm^2) were plated in 96 well flat bottom plates for the cytotoxicity studies and incubated at 37° C. for 48 h. The plating medium was aspirated off 96 well plates and 200 μL of growth medium containing the compound was added per well. Compounds were used at from O to the highest available concentration which ranged from 30 to 100 μM. Plates were incubated for 72 h, and then washed 4× with serum free medium. After washing, 50 μL of 3-[4,5-dimethylthiazol-2-yl]-2,5-diphenyl tetrazolium bromide solution (2 mg/mL) was added to each well, followed by 150 μL of complete growth medium. Plates were then incubated an additional 4 h at 37° C. The solution was aspirated off, 200 μL of DMSO added, and the plates were shaken for 30 min at room temperature. Absorbance at 540 nm was determined with a Titertek Multiskan Plus plate reader. Biologically active compounds were tested at least 3 independent times.

**Q.** Which IC50 (Homo sapiens, MDA-MB-231, 72 h) does the source give for `CCCCCCCCCC(=O)NC(CCC(=O)N(CCNC(=O)c1nc(-c2ccccc2)oc1-c1ccccc1)Cc1ccccc1)C(=O)O` (stereo not shown) [Compound 1f] here?
**A.** 100 µM

**Q.** And the “concentration dependence of growth inhibition (in words)” value (MDA-MB-231, 72 h)?
**A.** concentration-dependent inhibition in proliferation

**Q.** And the “concentration dependence of growth inhibition (in words)” value (MDA-MB-231, 72 h, listed as if)?
**A.** clear concentration-dependency

**Q.** And the IC50?
**A.** 88 to 100 µM
